According to the NIST ThermoML archive (doi:10.1021/acs.jced.7b00520):

Experiment: mn = molality of the nth substance listed, in mol/kg
Conditions: 101.3 kPa, Liquid; for viscosity: Capillary tube (Ostwald / Ubbelohde) method; for mass density: Vibrating tube method

Cn1cnc2c1c(=O)[nH]c(=O)n2C [1H-purine-2,6-dione, 3,7-dihydro-3,7-dimethyl-] + O
Conditions | mass density, 288.15 K [kg/m3] | mass density, 298.15 K [kg/m3] | mass density, 308.15 K [kg/m3] | mass density, 318.15 K [kg/m3] | viscosity, 288.15 K [mPa·s] | viscosity, 298.15 K [mPa·s] | viscosity, 308.15 K [mPa·s] | viscosity, 318.15 K [mPa·s]
m1 = 0.00051 | 999.157 | 997.073 | 994.088 | 990.268 | 1.138 | 0.891 | 0.72 | 0.597
m1 = 0.0007 | 999.167 | 997.083 | 994.097 | 990.277 | 1.139 | 0.891 | 0.72 | 0.597
m1 = 0.0009 | 999.177 | 997.093 | 994.107 | 990.287 | 1.139 | 0.891 | 0.72 | 0.597
m1 = 0.00098 | 999.182 | 997.097 | 994.111 | 990.291 | 1.139 | 0.891 | 0.72 | 0.597
m1 = 0.00123 | 999.195 | 997.11 | 994.123 | 990.303 | 1.139 | 0.891 | 0.72 | 0.597
m1 = 0.00147 | – | – | – | – | 1.139 | 0.891 | 0.72 | 0.597
m1 = 0.00148 | 999.209 | 997.123 | 994.135 | 990.314 | – | – | – | –
m1 = 0.00182 | – | – | – | – | 1.139 | 0.891 | 0.72 | 0.597
m1 = 0.00183 | 999.228 | 997.141 | 994.152 | 990.331 | – | – | – | –
m1 = 0.00212 | – | – | – | – | 1.139 | 0.891 | 0.72 | 0.597
m1 = 0.00213 | 999.244 | 997.156 | 994.167 | 990.346 | – | – | – | –

Cn1c(=O)c2[nH]cnc2n(C)c1=O [3,7-dihydro-1,3-dimethyl-1H-purine-2,6-dione] + O
Conditions | mass density, 288.15 K [kg/m3] | mass density, 298.15 K [kg/m3] | mass density, 308.15 K [kg/m3] | mass density, 318.15 K [kg/m3] | viscosity, 288.15 K [mPa·s] | viscosity, 298.15 K [mPa·s] | viscosity, 308.15 K [mPa·s] | viscosity, 318.15 K [mPa·s]
m1 = 0.00208 | 999.241 | 997.153 | 994.165 | 990.343 | – | – | – | –
m1 = 0.00213 | – | – | – | – | 1.139 | 0.891 | 0.719 | 0.597
m1 = 0.00284 | – | – | – | – | 1.139 | 0.892 | 0.72 | 0.597
m1 = 0.00285 | 999.283 | 997.192 | 994.204 | 990.379 | – | – | – | –
m1 = 0.00378 | 999.333 | 997.239 | 994.25 | 990.423 | – | – | – | –
m1 = 0.00394 | – | – | – | – | 1.14 | 0.892 | 0.72 | 0.598
m1 = 0.00479 | 999.388 | 997.291 | 994.3 | 990.472 | – | – | – | –
m1 = 0.00519 | – | – | – | – | 1.14 | 0.892 | 0.721 | 0.598
m1 = 0.00578 | 999.443 | 997.341 | 994.35 | 990.519 | – | – | – | –
m1 = 0.00617 | – | – | – | – | 1.141 | 0.893 | 0.722 | 0.599
m1 = 0.00689 | – | – | – | – | 1.141 | 0.893 | 0.722 | 0.599
m1 = 0.00699 | 999.509 | 997.404 | 994.41 | 990.578 | – | – | – | –
m1 = 0.00776 | 999.551 | 997.443 | 994.448 | 990.614 | – | – | – | –
m1 = 0.00819 | – | – | – | – | 1.142 | 0.894 | 0.723 | 0.599
m1 = 0.00921 | – | – | – | – | 1.142 | 0.895 | 0.723 | 0.6
m1 = 0.00934 | 999.638 | 997.526 | 994.528 | 990.691 | – | – | – | –
m1 = 0.00986 | 999.667 | 997.554 | 994.554 | 990.716 | – | – | – | –

Cn1c(=O)c2c(ncn2C)n(C)c1=O [caffeine] + O
Conditions | mass density, 288.15 K [kg/m3] | mass density, 298.15 K [kg/m3] | mass density, 308.15 K [kg/m3] | mass density, 318.15 K [kg/m3] | viscosity, 288.15 K [mPa·s] | viscosity, 298.15 K [mPa·s] | viscosity, 308.15 K [mPa·s] | viscosity, 318.15 K [mPa·s]
m1 = 0.00508 | – | – | – | – | 1.14 | 0.895 | 0.723 | 0.599
m1 = 0.0051 | 999.404 | 997.304 | 994.303 | 990.464 | – | – | – | –
m1 = 0.00693 | – | – | – | – | 1.142 | 0.896 | 0.724 | 0.6
m1 = 0.00695 | 999.505 | 997.399 | 994.39 | 990.545 | – | – | – | –
m1 = 0.009 | – | – | – | – | 1.144 | 0.896 | 0.724 | 0.601
m1 = 0.00902 | 999.619 | 997.504 | 994.488 | 990.637 | – | – | – | –
m1 = 0.01986 | – | – | – | – | 1.147 | 0.9 | 0.728 | 0.606
m1 = 0.01993 | 1000.22 | 998.06 | 995.013 | 991.121 | – | – | – | –
m1 = 0.02978 | – | – | – | – | 1.152 | 0.905 | 0.732 | 0.609
m1 = 0.02992 | 1000.77 | 998.576 | 995.497 | 991.571 | – | – | – | –
m1 = 0.03531 | 1001.07 | 998.853 | 995.759 | 991.812 | – | – | – | –
m1 = 0.03533 | – | – | – | – | 1.154 | 0.907 | 0.735 | 0.611
m1 = 0.03983 | – | – | – | – | 1.156 | 0.91 | 0.737 | 0.613
m1 = 0.04008 | 1001.34 | 999.101 | 996.001 | 992.025 | – | – | – | –
m1 = 0.04953 | – | – | – | – | 1.162 | 0.914 | 0.741 | 0.617
m1 = 0.04992 | 1001.89 | 999.619 | 996.484 | 992.483 | – | – | – | –
